# Assay results from US6713048B2, “Δ9 tetrahydrocannabinol (Δ9 THC) solution metered dose inhalers and methods of use” (Virginia Commonwealth University, priority 1998, dated 2004).
# Entries after “also recorded” stand apart in the source; their conditions may differ.
# Key:
# Male ICR mice [1] = test: Hypothermia, rectal temperature; assay type: in vivo; conditions: SR 141716A 10 mg/kg i.p. 5 min before 60 actuations of Δ^9-THC MDI
# Protocol: (§1) Male ICR mice, weighing approximately 30 g, obtained from Harlan Laboratories (Indianapolis, Ind.) were provided a light cycle of approximately 6 a.m. to 6 p.m., and the temperature remained approximately 23° C. The mice were placed in the lab and allowed to accommodate to the surroundings the evening prior to testing. Animals were allowed food (Harlan Teklab, Madison, Wis.) and water ad libitum.
# (§2) The exposure chamber was a modified, inverted, 1-liter separation funnel, housed under a fume hood, which allowed four mice to be simultaneously exposed to the aerosol. […]
# (§3) A ring-test procedure was used to assess catalepsy. The percent of time during a five minute observation period that mice remained motionless, except for movements related to respiration, while stationed on a 5.7 cm diameter ring stand 23 cm above the laboratory bench, was assessed. Body temperature was assessed by inserting a thermometer probe (Traceable Digital, Control Co., Friendswood, Tex.) 2.5 cm into the rectum. Subjects were assessed for baseline tail-flick latency and rectal temperature prior to drug or vehicle administration. […] Locomotor activity, tail-flick latency, catalepsy, and hypothermia were assessed 5, 20, 40, and 60 minutes, respectively, after aerosol exposure. […]
# Male ICR mice [2] = test: Locomotor activity (hypomotility), Digiscan Animal Activity Monitor; assay type: in vivo; conditions: SR 141716A 10 mg/kg i.p. 5 min before 60 actuations of Δ^9-THC MDI
# Protocol: Mice were placed in separate clear chambers (16.5 cm×25.5 cm×11.5 cm high) and assessed for hypomotility using a Digiscan Animal Activity Monitor (Omnitech Electronics Inc., Columbus, Ohio) in which the total number of photocell-light beam interruptions was counted. Antinociception was assessed in the tail-flick test (D'Amour, F. E., Smith, D. L., A method for determining loss of pain sensation, J Pharm Exp Ther, 72:74-79 (1941)) with heat intensity adjusted to give baseline latencies ranging from 2.0-4.0 seconds. […] Percent maximum possible effect (%MPE) was determined according to the following formula:
# A ring-test procedure was used to assess catalepsy. […] Body temperature was assessed by inserting a thermometer probe (Traceable Digital, Control Co., Friendswood, Tex.) 2.5 cm into the rectum. […]
# Male ICR mice [3] = test: Catalepsy, ring-test (ring immobility); assay type: in vivo; conditions: SR 141716A 10 mg/kg i.p. 5 min before 60 actuations of Δ^9-THC MDI
# Protocol: as §1, §2, §3
# mice = conditions: cited from earlier work
# Male ICR mice [4] = test: Antinociception, tail-flick test; assay type: in vivo
# Protocol: as §1
# The exposure chamber was a modified, inverted, 1-liter separation funnel, housed under a fume hood, which allowed four mice to be simultaneously exposed to the aerosol. Air was drawn through the chamber at a rate of approximately 60 ml/minute and filtered through glass wool (Corning Inc., Corning, N.Y.) and charcoal traps (SKC Inc., Eighty Four, Pa.) upon exiting the exposure chamber. Each actuation of Δ^9-THC or vehicle was delivered once per 5 s and the entire exposure period was 10 min. Mice were exposed to 20, 40 or 60 actuations of aerosolized Δ^9-THC or 60 actuations of vehicle.
# Mice were placed in separate clear chambers (16.5 cm×25.5 cm×11.5 cm high) and assessed for hypomotility using a Digiscan Animal Activity Monitor (Omnitech Electronics Inc., Columbus, Ohio) in which the total number of photocell-light beam interruptions was counted. Antinociception was assessed in the tail-flick test (D'Amour, F. E., Smith, D. L., A method for determining loss of pain sensation, J Pharm Exp Ther, 72:74-79 (1941)) with heat intensity adjusted to give baseline latencies ranging from 2.0-4.0 seconds. A cut-off time of 10 seconds was used to limit tissue damage. Percent maximum possible effect (%MPE) was determined according to the following formula:
# %MPE=[(test latency-baseline latency)/(cut-off-baseline latency)]*100
# A ring-test procedure was used to assess catalepsy. The percent of time during a five minute observation period that mice remained motionless, except for movements related to respiration, while stationed on a 5.7 cm diameter ring stand 23 cm above the laboratory bench, was assessed. Body temperature was assessed by inserting a thermometer probe (Traceable Digital, Control Co., Friendswood, Tex.) 2.5 cm into the rectum. Subjects were assessed for baseline tail-flick latency and rectal temperature prior to drug or vehicle administration. […] Locomotor activity, tail-flick latency, catalepsy, and hypothermia were assessed 5, 20, 40, and 60 minutes, respectively, after aerosol exposure. An additional group of animals was given an i.v. injection of Δ^9-THC (0.3, 1, 3, or 10 mg/kg) or vehicle into a lateral tail vein and assessed in the tail-flick test 20 minutes later. All injections were given in a volume of 0.1 ml per 10 g animal weight.
# The statistical analysis of the data was as follows. Data are represented by means±standard error (s.e.). Statistical analysis of the data was performed using Student t-tests (for the physiochemical comparisons of the aerosol), or ANOVA (for pharmacological studies), with significance set at p<0.05. Post hoc tests for significant ANOVAs included either Dunnett's test or Tukey/Kramer post-hoc analysis. […] A sample size of 6-8 mice was used in each group.
# [5] = system: Spasticity and pain due to spinal cord injury; conditions: oral THC (5 mg) or codeine (50 mg); 1 patient; cited from earlier work
# [6] = system: Nausea and emesis due to Cancer chemotherapy; conditions: oral 15 mg THC, 10 mg prochloperzine or placebo; 116 patients; cited from earlier work
smiles,measurement,setting,value
Cc1c(C(=O)NN2CCCCC2)nn(-c2ccc(Cl)cc2Cl)c1-c1ccc(Cl)cc1 [SR 141716A],antagonism of Δ^9-THC-induced hypothermia,Male ICR mice [1],significantly blocked; also recorded: not completely antagonized; also recorded: significantly antagonized
same,antagonism of Δ^9-THC-induced hypomotility,Male ICR mice [2],significantly blocked; also recorded: significantly antagonized
same,antagonism of Δ^9-THC-induced catalepsy,Male ICR mice [3],significantly blocked; also recorded: significantly antagonized
same,ED50 in antagonizing antinociceptive effects,"mice; exposure to marijuana smoke (Lichtman et al., 2001)",0.6 mg/kg
same,antagonism of effects of marijuana smoke,"mice; mice exposed to marijuana smoke (Lichtman et al., 2001)",only effectively antagonized the antinociceptive response
same,antagonism of Δ^9-THC-induced antinociception,Male ICR mice [4]; SR 141716A 10 mg/kg i.p. 5 min before 60 actuations of Δ^9-THC MDI,significantly blocked; also recorded: significantly antagonized
same,AD50 (95% C.L.) in antagonizing the antinociceptive effects of inhaled Δ^9-THC,"Male ICR mice [4]; i.p. pretreatment, exposure to Δ^9-THC",0.8 mg/kg
COc1ccc2c3c1O[C@H]1[C@@H](O)C=C[C@H]4[C@@H](C2)N(C)CC[C@@]341 [codeine],effect on spasticity,[5],codeine did not
CN1CCN(CCCN2c3ccccc3Sc3ccc(Cl)cc32)CC1 [prochlorperazine],antiemetic effect compared with placebo,[6],each greater than placebo;
same,"antiemetic effects, THC vs prochlorperazine",[6],Equal antiemetic effects
